Measurements: ChEMBL document CHEMBL1201862, “PubChem BioAssay data set” (2004)
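These data come from cells grown in 96-well plates and exposed to compound for 48 hours at five concentrations. GI50 is the concentration that inhibits growth by half.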 Active and inactive are the calls of the source. No stated cut-off is given here; in the data, active = GI50 up to about 1.1 µM and inactive = higher.

Tests used:
Experiment in all cases: NCI-60 cell line screen, 48 h
SF-268 = system: SF-268
SR = system: SR
NCI-H522 = system: NCI-H522
PC-3 = system: PC-3
UACC-257 = system: UACC-257
COLO 205 = system: COLO 205
M14 = system: M14
SW-620 = system: SW-620
NCI-H23 = system: NCI-H23
U-251 = system: U-251
SK-MEL-28 = system: SK-MEL-28
MDA-N = system: MDA-N
KM12 = system: KM12
OVCAR-3 = system: OVCAR-3
OVCAR-4 = system: OVCAR-4
SK-OV-3 = system: SK-OV-3
HL-60 = system: HL-60
SK-MEL-2 = system: SK-MEL-2
HOP-92 = system: HOP-92
A498 = system: A498

SMILES | GI50 (SF-268) | GI50 (SR) | GI50 (NCI-H522) | GI50 (PC-3) | GI50 (UACC-257) | GI50 (COLO 205) | GI50 (M14) | GI50 (SW-620) | GI50 (NCI-H23) | GI50 (U-251) | GI50 (SK-MEL-28) | GI50 (MDA-N) | GI50 (KM12) | GI50 (OVCAR-3) | GI50 (OVCAR-4) | GI50 (SK-OV-3) | GI50 (HL-60) | GI50 (SK-MEL-2) | GI50 (HOP-92) | GI50 (A498)
O=c1c2cc([N+](=O)[O-])cnc2sn1-c1ccc(Br)cc1 | 27.5 µM (inactive) | 21.8 µM (inactive) | 5.5 µM (inactive) | 33.7 µM (inactive) | > 100 µM (inactive) | 47.2 µM (inactive) | 53 µM (inactive) | 28.3 µM (inactive) | 29.6 µM (inactive) | 34.4 µM (inactive) | > 100 µM (inactive) | > 100 µM (inactive) | 40.8 µM (inactive) | 22.4 µM (inactive) | 24.5 µM (inactive) | 14.8 µM (inactive) | 34.5 µM (inactive) | 32.7 µM (inactive) | 23.8 µM (inactive) | –
O=c1c2cc([N+](=O)[O-])ccc2n2n1CCCC2 | > 100 µM (inactive) | > 100 µM (inactive) | > 100 µM (inactive) | > 100 µM (inactive) | > 100 µM (inactive) | > 100 µM (inactive) | > 100 µM (inactive) | > 100 µM (inactive) | > 100 µM (inactive) | > 100 µM (inactive) | > 100 µM (inactive) | > 100 µM (inactive) | > 100 µM (inactive) | > 100 µM (inactive) | > 100 µM (inactive) | > 100 µM (inactive) | > 100 µM (inactive) | – | > 100 µM (inactive) | > 100 µM (inactive)
COc1cc2c3c(n(C)c(=O)c2cc1OC)-c1cc2c(cc1/C3=C\CCCI)OCO2 | 0.776 µM (active) | 0.239 µM (active) | 6.75 µM (inactive) | > 53.5 µM (inactive) | > 100 µM (inactive) | 18.1 µM (inactive) | 2.61 µM (inactive) | 0.533 µM (active) | 12.2 µM (inactive) | 4.21 µM (inactive) | – | > 70.8 µM (inactive) | > 87.9 µM (inactive) | > 61.1 µM (inactive) | – | 20.9 µM (inactive) | > 47.1 µM (inactive) | > 100 µM (inactive) | – | 2.38 µM (inactive)
Cc1c2ccccc2c(C)n2c1nc1ccccc12 | 9.89 µM (inactive) | 6.5 µM (inactive) | – | 6.98 µM (inactive) | 14.2 µM (inactive) | – | 9.35 µM (inactive) | 3.73 µM (inactive) | 6.93 µM (inactive) | 5.6 µM (inactive) | 7.85 µM (inactive) | 10.6 µM (inactive) | 7.53 µM (inactive) | 5.41 µM (inactive) | – | 5.96 µM (inactive) | 83 µM (inactive) | – | 12.2 µM (inactive) | 5.42 µM (inactive)
CC(C)(C)OC(=O)NC(CSCc1ccc(C(=O)c2ccccc2)cc1)C(=O)O (stereo unspecified) | > 100 µM (inactive) | 87.9 µM (inactive) | > 100 µM (inactive) | > 100 µM (inactive) | > 100 µM (inactive) | > 100 µM (inactive) | – | > 100 µM (inactive) | > 100 µM (inactive) | > 100 µM (inactive) | > 100 µM (inactive) | > 100 µM (inactive) | > 100 µM (inactive) | > 100 µM (inactive) | 88.9 µM (inactive) | – | > 100 µM (inactive) | – | > 100 µM (inactive) | > 100 µM (inactive)
CC(=O)OCC(OC(C)=O)C(OC(C)=O)C(OC(C)=O)C(C=NN(C(C)=O)S(=O)(=O)c1ccc(/C=C2\NC(=O)N(C)C2=O)cc1)OC(C)=O (stereo unspecified) | 26.2 µM (inactive) | 11.8 µM (inactive) | – | 27.9 µM (inactive) | 44.8 µM (inactive) | 29.3 µM (inactive) | 42.7 µM (inactive) | 26.4 µM (inactive) | 36.1 µM (inactive) | 22.6 µM (inactive) | – | 32.6 µM (inactive) | > 100 µM (inactive) | 29.7 µM (inactive) | 27 µM (inactive) | 31.4 µM (inactive) | – | 20.4 µM (inactive) | – | 38 µM (inactive)
O=[N+]([O-])/C(C(Cl)=C(Cl)Cl)=C(\N1CCCCC1)n1cncn1 | 12.9 µM (inactive) | 3.99 µM (inactive) | 15.6 µM (inactive) | 16.4 µM (inactive) | 17.5 µM (inactive) | 15.7 µM (inactive) | 17.2 µM (inactive) | 15.8 µM (inactive) | 15.2 µM (inactive) | 13.3 µM (inactive) | 16.3 µM (inactive) | 14.4 µM (inactive) | 19.5 µM (inactive) | 16 µM (inactive) | 18.6 µM (inactive) | 17.6 µM (inactive) | – | 18 µM (inactive) | – | 15.8 µM (inactive)
O=C1CC(=O)NC(NN2C(=O)/C(=C/c3ccc(Cl)cc3)N=C2c2ccccc2)=N1 | 14.1 µM (inactive) | 4.71 µM (inactive) | 10.1 µM (inactive) | 14 µM (inactive) | 17.8 µM (inactive) | 16.8 µM (inactive) | 14.5 µM (inactive) | 17.4 µM (inactive) | 16 µM (inactive) | 15.6 µM (inactive) | 19.1 µM (inactive) | 15.8 µM (inactive) | 13 µM (inactive) | 15.9 µM (inactive) | 5.64 µM (inactive) | 23 µM (inactive) | – | 15.5 µM (inactive) | 12.4 µM (inactive) | 16.9 µM (inactive)
